Experimental data published in publication PMC8238948, “Potent inhibitors of toxic alpha-synuclein identified via cellular time-resolved FRET biosensors” (NPJ Parkinson's Disease, 2021).
Entries after “also recorded” stand apart in the source; their conditions may differ. Where a name gives a salt, the structure may show the parent alone.

Tests used:
[1] = biological target: T1, αSN (15 μM monomeric αSN doped with 5% αSN PFF seeds) (Homo sapiens, UniProt P37840); experiment: Seeded Thioflavin-T aggregation assay; type: biochemical; settings: 15 μM αSN monomer + 5% PFF; for IC50: 37 °C, max ThT intensity
T1 construct: made in house; host or cells: Escherichia coli BL21(DE3), T7-7 plasmid
Procedure: Figure 11 and Supplementary Fig. 23 present results from a dose-response-seeded aggregation assay. Vehicle, control, and hit compounds were incubated with 15 µM αSN(m), doped with 5% freshly sonicated αSN PFF in PBS under mild agitation (Supplementary Fig. 23a). […] Titration of control and hit compounds were run in triplicate; representative traces of hit compounds are illustrated in Fig. 11a with a full summary of each titration detailed in Supplementary Fig. 23c–h. IC50 was determined for each compound by determining the max ThT intensity for each concentration (Fig. 11b).
Seeded ThT aggregation assay was performed using 15 μM monomeric αSN doped with 5% (0.75 μM sonicated αSN pre-formed fibril (PFF) seeds) in a 384-well plate under slow agitation (300 RPM) at 37 °C. a Control samples for the aggregation include PBS (black), αSN monomer (brown), 5% αSN PFF (red), and the 15 μM monomer+5% PFF mixture (orange). Dose-response curves were made with a titration of compounds. […] In contrast, RO and DEM both show potent effects relative to Baicalin and EGCG controls. BAY does have some response, but it lags behind other hit compounds. b Normalizing the initial peak in ThT data allows us to estimate an IC50 for each hit. […] Although there is a small trend with BAY, the data cannot be fit to resolve an IC50.
ThT (Sigma, product no. T3516) was dissolved in PBS buffer and was filtered through a 0.2-µm syringe filter to make a stock solution of 2.5 mM. Working ThT concentration was 20 µM. PFF seeds were produced via constant agitation of 1000 RPM at 37 °C (ThermoMixer-C, Eppendorf, Hauppauge, NY) of 500 µL of 350 µM αSN in PBS in a 2 mL tube for 5 days. PFFs were aliquoted and flash frozen and stored at −80 °C until further use. PFF seeds were rapidly thawed, diluted to 35 µM in PBS, and sonicated 120 pulses at 50% using a probe-tip sonicator following the established protocols. Master mix samples for each of the different ThT assays were prepared and dispensed in triplicate as 50 µL in 384-well flat, black-bottom polypropylene plates (PN 781209, Greiner Bio-One) and sealed with fluorescently transparent film. Conditions for non-seeded, seeded, and cell homogenate assays varied slightly.
Seeded ThT experiments were performed at a lower monomer concentration to preclude spontaneous αSN aggregation during the time course of the experiment. For both seeded and cell homogenate experiments, sample were prepared in PBS + 20 µM ThT with or without 15 µM αSN(m) +/− 5% PFF (0.75 µM). Additional control samples of 15 µM PFF and 0.75 µM PFF were also prepared. All empty wells were filled with PBS for a thermal sink and to help prevent evaporation. Assay plates were prepared as pre-cellular FRET dose response above. Dose response was done across 8 concentrations (10 nM to 50 µM). The assay was run at 37 °C with mild shaking (200 RPM) in a Cytation3 plate reader. The ThT fluorescence was monitored with excitation filter of 450 nm and emission filter of 490 nm. Readings were acquired every 20 min for a minimum of 24 h. Seeded ThT aggregation IC50 values were determined by first normalizing all ThT curves to the maximal signal at plateau for the αSN + 5% PFF + DMSO samples. The normalized fluorescence at each concentration was fit to the Hill equation to resolve an effective IC50 of seeded aggregation inhibition.

[2] = biological target: T2, A53T αSN oligomer (inter-protomeric) FRET biosensor in HEK293 cells (Homo sapiens, UniProt P37840, A53T); experiment: FLT dose response, A53T oligomer (inter-protomeric) FRET biosensor; type: cell-based; settings: 1 nM to 50 μM
T2 construct: In addition to full-length αSN fusion constructs, we observe both C-terminally and N-terminally truncated αSN species; expressed in transfected cells; host or cells: HEK293
Procedure: Hits from the pilot HTS of the LOPAC library were selected and dispensed into 384-well plates to verify reproducible and specific FLT trends using the WT and A53T oligomer (inter-protomeric) FRET biosensors. Figure 6 presents a subset of these dose-response curves for hit compounds RO, BAY, SB206553, and DEM, along with known control compound EGCG. […] Assay quality was determined by Z′ (Eq. 2) where a Z′ > 0.5 indicates good assay quality. Using EGCG as control compound and the hit DEM, we calculated Z′ value of 0.76 and 0.66, respectively, indicating excellent assay quality.
Fig. 6 FRET dose response of pilot HTS hits. A subset of hits were evaluated using both WT (a) and A53T (b) oligomer biosensor to verify both increased FLT (disrupting αSN–αSN interactions) and decreased FLT (tighter aggregation or remodeled oligomers).
Compounds were tested in a FLT dose-response assay. The compound was dissolved to 10 mM in DMSO, then serially diluted in 96-well mother plates. Each hit was re-screened for FLT dose response across eight concentrations (1 nM to 50 μM). Compounds (0.5 μL) were transferred from mother plates into assay plates using a Mosquito HV liquid handler (TTP Labtech Ltd, UK). The preparations for αSN FRET biosensors were carried out as above.

[3] = tested on: differentiated SH-SY5Y cells treated with sonicated human αSN PFF; experiment: Differentiated SH-SY5Y cell model of αSN PFF pathology (pS129 immunoblot); type: cell-based; settings: 1 μM compound, 200 nM human PFF, 48 h; for total pS129 signal (words): relative to DMSO
Procedure: SH-SY5Y cells were differentiated using reduced serum (3%) media supplemented with 10 μM retinoic acid for 3 days and then changed to serum-free media supplemented with 10 ng/mL brain-derived neurotrophic factor for the remainder of the experiment. Stock αSN PFFs were diluted and sonicated as described previously. SH-SY5Y cultures were then treated with 200 nM PFF and PBS, DMSO, 1 μM drug compound (RO, BAY, or DEM), or 50 μM Baicalin. After 48 h, SH-SY5Y were washed with PBS and harvested in cold lysis buffer with protease and phosphatase inhibitors, as previously described. Approximately 15 μg of total protein was loaded onto a 4–20% Criterion TGX midi gel and probed using Syn1 (BD Biosciences, #610787; 1° 1:5000; 2° 1:10K) and pS^129 aSyn (abcam, ab59264; 1° 1:1000; 2° 1:5000) and a-tubulin (abcam, ab4074; 1° 1:1000; 2° 1:10K) page 19: Supplemental Figure 18. […] Differentiated SH-SY5Y cells were treated with PBS, vehicle (DMSO) or compounds with and without 200nM sonicated human αSN PFFs. […] These will be removed in subsequent densitometry analysis. (b) Replicates of PFF +/- compound treatment were ran for immunoblot analysis of pS129 immunoreactivity. (c) Densitometry analysis was performed using ImageLab from BioRad. Total pS129 signal (excluding the non- specific bands) was normalized to tubulin loading control. […] Quantification is normalized per lane to highlight change in the ratio of different species. Note, oligomers quantification is plotted relative to the right-y- axis. All statistical comparisons were to DMSO treatment using two-tailed t-test with * p<0.05; ** p<0.01; *** p<0.005.

| Structure (SMILES) | effect on seeded aggregation ([1]; titration up to 50 μM) | FLT trend in dose response [2] | HMW pS129 assemblies [3] | LMW oligomer pS129 fraction [3] | monomeric pS129 fraction [3] | total pS129 signal (words) [3] | total pS129 signal (words) ([3]; listed as Bay) | IC50 [1] |
| --- | --- | --- | --- | --- | --- | --- | --- | --- |
| COC(=O)C1=C(C)NC(C)=C([N+](=O)[O-])C1c1ccccc1C(F)(F)F (racemic) [BAY, (±)-Bay K 8644] | cannot be fit | reduced FLT | increase HMW assemblies | not BAY, reduce oligomers | significant reduction | significant increase | increased pS129 signal |  |
| Nc1ccc(-c2nc3ccc(-c4nc5ccc(N)cc5[nH]4)cc3[nH]2)cc1 [RO, Ro 90–7501] |  | reduced FLT | increase HMW assemblies | significantly reduced | significant reduction | significant reduction; also recorded: significant decrease |  | 931 nM |
| CN(C)[C@@H]1C(O)=C(C(N)=O)C(=O)[C@@]2(O)C(O)=C3C(=O)c4c(O)ccc(Cl)c4[C@@H](O)[C@H]3C[C@@H]12 [DEM, Demeclocycline HCl] |  | reduced FLT | increase HMW assemblies | significantly reduced | significant reduction | non-significant change |  | 1000 nM |
